Measurements published in the OligoGym collection.
HELM strings list units from the 5' end as sugar, base in round brackets, then linkage (d deoxyribose, r ribose, m 2'-O-methyl, p phosphodiester). Strings are as the collection lists them, not checked against the first reports. ss, as = sense and antisense strand; [una] = unlocked nucleic acid; [s4r] = 4'-thioribose; [fl2r] = 2'-fluoro

Details: siRNA
Note: test system not given here.

Substance	target mRNA knockdown
RNA1{r(C)p.r(G)p.r(U)p.r(A)p.r(C)p.r(G)p.r(C)p.r(G)p.r(G)p.r(A)p.r(A)p.r(U)p.r(A)p.r(C)p.r(U)p.r(U)p.r(C)p.r(G)p.r(A)p.r(T)p.r(T)}|RNA2{r(U)p.r(C)p.r(G)p.r(A)p.r(A)p.r(G)p.r(U)p.r(A)p.r(U)p.r(U)p.r(C)p.r(C)p.r(G)p.m(C)p.m(G)p.m(U)p.m(A)p.m(C)p.m(G)p.r(T)p.r(T)}$$$RNA1{StrandType:ss}|RNA2{StrandType:as}$	30.8%
RNA1{r(C)p.r(G)p.r(U)p.r(A)p.r(C)p.r(G)p.r(C)p.r(G)p.r(G)p.r(A)p.r(A)p.r(U)p.r(A)p.r(C)p.r(U)p.r(U)p.r(C)p.r(G)p.r(A)p.r(T)p.r(T)}|RNA2{r(U)p.r(C)p.r(G)p.r(A)p.r(A)p.r(G)p.r(U)p.r(A)p.r(U)p.r(U)p.r(C)p.r(C)p.r(G)p.r(C)p.r(G)p.[s4r](U)p.[s4r](A)p.[s4r](C)p.[s4r](G)p.r(T)p.r(T)}$$$RNA1{StrandType:ss}|RNA2{StrandType:as}$	85.6%
RNA1{r(C)p.r(G)p.r(U)p.r(A)p.r(C)p.r(G)p.r(C)p.r(G)p.r(G)p.r(A)p.r(A)p.r(U)p.r(A)p.r(C)p.r(U)p.r(U)p.r(C)p.r(G)p.r(A)p.r(T)p.r(T)}|RNA2{r(U)p.r(C)p.r(G)p.r(A)p.r(A)p.r(G)p.r(U)p.r(A)p.r(U)p.r(U)p.r(C)p.r(C)p.r(G)p.r(C)p.r(G)p.r(U)p.r(A)p.[s4r](C)p.[s4r](G)p.r(T)p.r(T)}$$$RNA1{StrandType:ss}|RNA2{StrandType:as}$	90.2%
RNA1{r(C)p.r(U)p.[fl2r](A)p.[fl2r](A)p.r(G)p.r(C)p.r(C)p.r(U)p.r(G)p.[fl2r](U)p.r(U)p.r(U)p.r(C)p.r(U)p.r(U)p.r(C)p.r(C)p.r(U)p.r(C)p.r(T)p.r(T)}|RNA2{r(G)p.r(A)p.r(G)p.r(G)p.r(A)p.r(A)p.r(G)p.r(A)p.r(A)p.r(A)p.r(C)p.r(A)p.r(G)p.r(G)p.r(C)p.r(U)p.[fl2r](U)p.r(A)p.r(G)p.r(T)p.r(T)}$$$RNA1{StrandType:ss}|RNA2{StrandType:as}$	85%
RNA1{r(C)p.r(U)p.[fl2r](A)p.r(G)p.r(A)p.r(G)p.r(G)p.r(A)p.r(U)p.r(C)p.r(U)p.r(U)p.r(G)p.r(A)p.r(A)p.r(G)p.r(A)p.r(C)p.r(C)p.r(T)p.r(T)}|RNA2{r(G)p.r(G)p.r(U)p.r(C)p.r(U)p.r(U)p.r(C)p.r(A)p.r(A)p.r(G)p.r(A)p.r(U)p.r(C)p.r(C)p.r(U)p.r(C)p.[fl2r](U)p.r(A)p.r(G)p.r(T)p.r(T)}$$$RNA1{StrandType:ss}|RNA2{StrandType:as}$	82%
RNA1{r(C)p.r(U)p.m(C)p.r(A)p.r(A)p.r(A)p.r(U)p.m(C)p.r(A)p.r(A)p.r(G)p.r(G)p.r(C)p.r(C)p.r(G)p.r(G)p.r(A)p.r(G)p.r(U)p.r(T)p.r(T)}|RNA2{r(A)p.r(C)p.r(U)p.r(C)p.r(C)p.r(G)p.r(G)p.r(C)p.r(C)p.r(U)p.m(U)p.r(G)p.r(A)p.r(U)p.r(U)p.m(U)p.r(G)p.r(A)p.r(G)p.r(T)p.r(T)}$$$RNA1{StrandType:ss}|RNA2{StrandType:as}$	82%
RNA1{r(C)p.r(U)p.r(A)p.r(A)p.r(G)p.r(G)p.r(A)p.r(C)p.r(C)p.r(U)p.r(A)p.r(A)p.r(C)p.r(A)p.r(A)p.[una](A)p.r(G)p.[una](U)p.[una](U)p.r(U)p.r(U)}|RNA2{r(A)p.r(A)p.r(C)p.r(U)p.r(U)p.r(U)p.r(G)p.r(U)p.r(U)p.r(A)p.r(G)p.r(G)p.r(U)p.r(C)p.r(C)p.r(U)p.r(U)p.r(A)p.r(G)p.r(U)p.r(U)}$$$RNA1{StrandType:ss}|RNA2{StrandType:as}$	70%
RNA1{r(C)p.r(U)p.r(A)p.r(A)p.r(G)p.r(G)p.r(A)p.r(C)p.r(C)p.r(U)p.r(A)p.r(A)p.r(C)p.r(A)p.r(A)p.r(A)p.r(G)p.r(U)p.[una](U)p.r(U)p.r(U)}|RNA2{r(A)p.r(A)p.r(C)p.r(U)p.r(U)p.r(U)p.r(G)p.r(U)p.r(U)p.r(A)p.r(G)p.r(G)p.r(U)p.r(C)p.r(C)p.r(U)p.r(U)p.r(A)p.r(G)p.r(U)p.r(U)}$$$RNA1{StrandType:ss}|RNA2{StrandType:as}$	60%
RNA1{r(C)p.r(U)p.r(A)p.r(G)p.r(A)p.r(G)p.r(G)p.r(A)p.r(U)p.r(C)p.r(U)p.r(U)p.r(G)p.r(A)p.r(A)p.r(G)p.r(A)p.r(C)p.r(C)p.r(T)p.r(T)}|RNA2{r(G)p.r(G)p.r(U)p.r(C)p.r(U)p.r(U)p.[fl2r](C)p.r(A)p.r(A)p.r(G)p.r(A)p.r(U)p.r(C)p.r(C)p.r(U)p.r(C)p.[fl2r](U)p.r(A)p.r(G)p.r(T)p.r(T)}$$$RNA1{StrandType:ss}|RNA2{StrandType:as}$	95%
RNA1{r(C)p.r(U)p.r(C)p.m(C)p.r(C)p.m(C)p.r(A)p.r(G)p.r(U)p.m(C)p.r(U)p.r(C)p.r(U)p.r(C)p.r(U)p.m(U)p.r(A)p.r(A)p.r(A)p.r(T)p.r(T)}|RNA2{r(U)p.r(U)p.m(U)p.r(A)p.r(A)p.r(G)p.r(A)p.r(G)p.r(A)p.r(G)p.r(A)p.r(C)p.m(U)p.r(G)p.r(G)p.r(G)p.r(G)p.r(A)p.r(G)p.r(T)p.r(T)}$$$RNA1{StrandType:ss}|RNA2{StrandType:as}$	68%
RNA1{r(C)p.r(U)p.r(C)p.m(U)p.r(G)p.r(G)p.r(C)p.r(C)p.r(U)p.r(U)p.r(U)p.r(C)p.r(U)p.r(C)p.r(U)p.r(C)p.m(U)p.r(A)p.r(G)p.r(T)p.r(T)}|RNA2{r(C)p.r(U)p.r(A)p.r(G)p.r(A)p.r(G)p.r(A)p.r(G)p.r(A)p.r(A)p.r(A)p.r(G)p.r(G)p.r(C)p.m(C)p.r(A)p.r(G)p.r(A)p.r(G)p.r(T)p.r(T)}$$$RNA1{StrandType:ss}|RNA2{StrandType:as}$	45%
RNA1{r(C)p.r(U)p.r(C)p.r(A)p.r(A)p.r(A)p.r(U)p.r(C)p.r(A)p.r(A)p.r(G)p.r(G)p.r(C)p.r(C)p.r(G)p.r(G)p.r(A)p.r(G)p.r(U)p.r(T)p.r(T)}|RNA2{r(A)p.r(C)p.r(U)p.r(C)p.r(C)p.r(G)p.r(G)p.r(C)p.r(C)p.r(U)p.m(U)p.r(G)p.r(A)p.r(U)p.r(U)p.m(U)p.r(G)p.r(A)p.r(G)p.r(T)p.r(T)}$$$RNA1{StrandType:ss}|RNA2{StrandType:as}$	85%
RNA1{r(C)p.r(U)p.r(C)p.r(C)p.r(C)p.r(C)p.r(A)p.r(G)p.r(U)p.r(C)p.r(U)p.r(C)p.r(U)p.r(C)p.r(U)p.r(U)p.m(A)p.r(A)p.r(A)p.r(T)p.r(T)}|RNA2{r(U)p.r(U)p.r(U)p.m(A)p.r(A)p.r(G)p.r(A)p.r(G)p.r(A)p.r(G)p.r(A)p.r(C)p.r(U)p.r(G)p.r(G)p.r(G)p.r(G)p.r(A)p.r(G)p.r(T)p.r(T)}$$$RNA1{StrandType:ss}|RNA2{StrandType:as}$	69%
RNA1{r(C)p.r(U)p.r(C)p.r(C)p.r(G)p.r(A)p.m(C)p.m(A)p.r(G)p.r(A)p.m(U)p.r(G)p.r(A)p.r(A)p.r(G)p.r(G)p.r(A)p.r(A)p.r(A)p.r(T)p.r(T)}|RNA2{r(U)p.r(U)p.r(U)p.r(C)p.r(C)p.r(U)p.r(U)p.m(C)p.r(A)p.r(U)p.r(C)p.m(U)p.m(G)p.r(U)p.r(C)p.r(G)p.r(G)p.r(A)p.r(G)p.r(T)p.r(T)}$$$RNA1{StrandType:ss}|RNA2{StrandType:as}$	70%
RNA1{r(C)p.r(U)p.r(C)p.r(C)p.r(G)p.r(A)p.r(C)p.r(A)p.r(G)p.r(A)p.m(U)p.r(G)p.r(A)p.r(A)p.r(G)p.r(G)p.r(A)p.r(A)p.r(A)p.r(T)p.r(T)}|RNA2{r(U)p.r(U)p.r(U)p.r(C)p.r(C)p.r(U)p.r(U)p.r(C)p.r(A)p.r(U)p.r(C)p.m(U)p.r(G)p.r(U)p.r(C)p.r(G)p.r(G)p.r(A)p.r(G)p.r(T)p.r(T)}$$$RNA1{StrandType:ss}|RNA2{StrandType:as}$	72%
RNA1{r(C)p.r(U)p.r(C)p.r(C)p.r(U)p.r(U)p.m(C)p.r(A)p.r(U)p.r(U)p.r(C)p.m(C)p.r(A)p.r(G)p.r(C)p.r(C)p.m(U)p.r(A)p.r(U)p.r(T)p.r(T)}|RNA2{r(A)p.m(U)p.r(A)p.r(G)p.r(G)p.r(C)p.m(U)p.r(G)p.r(G)p.r(A)p.r(A)p.m(U)p.r(G)p.r(A)p.r(A)p.r(G)p.r(G)p.r(A)p.r(G)p.r(T)p.r(T)}$$$RNA1{StrandType:ss}|RNA2{StrandType:as}$	78%
RNA1{r(C)p.r(U)p.r(C)p.r(C)p.r(U)p.r(U)p.r(C)p.r(A)p.r(U)p.r(U)p.r(C)p.r(C)p.r(A)p.r(G)p.r(C)p.r(C)p.m(U)p.r(A)p.r(U)p.r(T)p.r(T)}|RNA2{r(A)p.m(U)p.r(A)p.r(G)p.r(G)p.r(C)p.r(U)p.r(G)p.r(G)p.r(A)p.r(A)p.r(U)p.r(G)p.r(A)p.r(A)p.r(G)p.r(G)p.r(A)p.r(G)p.r(T)p.r(T)}$$$RNA1{StrandType:ss}|RNA2{StrandType:as}$	81%
RNA1{r(C)p.r(U)p.r(C)p.r(U)p.r(C)p.r(C)p.[fl2r](U)p.r(A)p.r(C)p.r(C)p.r(U)p.[fl2r](U)p.r(C)p.r(U)p.r(C)p.r(C)p.[fl2r](U)p.r(C)p.r(U)p.r(T)p.r(T)}|RNA2{r(A)p.r(G)p.r(A)p.r(G)p.r(G)p.r(A)p.r(G)p.r(A)p.r(A)p.r(G)p.r(G)p.[fl2r](U)p.r(A)p.r(G)p.r(G)p.r(A)p.r(G)p.r(A)p.r(G)p.r(T)p.r(T)}$$$RNA1{StrandType:ss}|RNA2{StrandType:as}$	73%
RNA1{r(C)p.r(U)p.r(C)p.r(U)p.r(C)p.r(C)p.r(U)p.[fl2r](A)p.r(C)p.r(C)p.r(U)p.r(U)p.r(C)p.r(U)p.r(C)p.r(C)p.r(U)p.r(C)p.r(U)p.r(T)p.r(T)}|RNA2{r(A)p.r(G)p.r(A)p.r(G)p.r(G)p.r(A)p.r(G)p.r(A)p.r(A)p.r(G)p.r(G)p.r(U)p.r(A)p.r(G)p.r(G)p.r(A)p.r(G)p.r(A)p.r(G)p.r(T)p.r(T)}$$$RNA1{StrandType:ss}|RNA2{StrandType:as}$	78%
RNA1{r(C)p.r(U)p.r(C)p.r(U)p.r(G)p.r(G)p.r(C)p.r(C)p.r(U)p.r(U)p.r(U)p.r(C)p.r(U)p.r(C)p.r(U)p.r(C)p.m(U)p.r(A)p.r(G)p.r(T)p.r(T)}|RNA2{r(C)p.r(U)p.r(A)p.r(G)p.r(A)p.r(G)p.r(A)p.r(G)p.r(A)p.r(A)p.r(A)p.r(G)p.r(G)p.r(C)p.r(C)p.r(A)p.r(G)p.r(A)p.r(G)p.r(T)p.r(T)}$$$RNA1{StrandType:ss}|RNA2{StrandType:as}$	47%
